This is an account of results in ChEMBL document CHEMBL4808162, “Constraining the Side Chain of C-Terminal Amino Acids in Apelin-13 Greatly Increases Affinity, Modulates Signaling, and Improves the Pharmacokinetic Profile” (J Med Chem, 2021).

The target in experiment [1] is T1, Apelin receptor (Homo sapiens, UniProt P35414).
T1 sequence (P35414 whole entry): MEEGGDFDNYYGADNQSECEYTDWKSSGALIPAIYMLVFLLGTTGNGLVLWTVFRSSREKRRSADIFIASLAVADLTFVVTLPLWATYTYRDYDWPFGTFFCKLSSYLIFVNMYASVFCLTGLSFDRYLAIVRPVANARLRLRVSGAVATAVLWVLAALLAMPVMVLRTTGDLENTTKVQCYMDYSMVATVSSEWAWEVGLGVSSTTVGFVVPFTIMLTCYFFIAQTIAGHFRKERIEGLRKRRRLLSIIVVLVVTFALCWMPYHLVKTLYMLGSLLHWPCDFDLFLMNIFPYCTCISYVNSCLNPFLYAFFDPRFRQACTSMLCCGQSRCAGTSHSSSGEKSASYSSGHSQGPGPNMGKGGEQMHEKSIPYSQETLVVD
The experiment in a line: Displacement of [125I] [NIe75,Tyr77]Pyr-apelin-13 from YFP-tagged human APJ receptor expressed in HEK293 cells incubated for 1 hr by gamma counting analysis. The experiment is classed as cell-based. On the technique in general: Loss of bound radioactivity is the signal in a displacement assay; it reports binding, not function.

For experiment [2], the target named is T1, Apelin receptor. In words: Agonist activity at human APJ receptor expressed in HEK293T cells co-expressing Galphai1 RlucII assessed as dissociation of Galphai1 from Gbetta/gamma subunit measured using coelenterazine luciferase substrate incubated for 5 mins by BRET assay. The experiment is classed as functional, cell-based, HEK293. For orientation: Bioluminescence resonance energy transfer reports proximity on the nanometre scale.

Experiment [3] addresses T1, Apelin receptor. In words: Agonist activity at human APJ receptor expressed in HEK293T cells co-expressing PDZ-Rho-Gef-RLucll and rGFP-CAAX assessed as induction of recruitment of Galpha12 to cell membrane using coelenterazine luciferase substrate incubated for 5 mins by BRET assay. The experiment is classed as functional, cell-based, HEK293.
Experiment [4] deals with T1, Apelin receptor. The experiment in a line: Agonist activity at human APJ receptor expressed in HEK293 cells co-expressing Rlucll-beta-arrestin2 assessed as induction of beta-arrestin2 recruitment to receptor incubated for 30 mins by BRET assay. The experiment is classed as functional, cell-based. (Recruitment of arrestin is a read-out of receptor activation apart from second messengers.)

Usually Ki stands for a measure of affinity in units of concentration, obtained from inhibition or displacement. Read a high Ki as lower affinity. A word on the EC50: it is the concentration needed to bring the measured effect to its halfway point.

SMILES strings stand for the structures.

For `CCCC[C@H](NC(=O)[C@@H]1CCCN1C(=O)CNC(=O)[C@H](CCCCN)NC(=O)[C@H](Cc1cnc[nH]1)NC(=O)[C@H](CO)NC(=O)[C@H](CC(C)C)NC(=O)[C@H](CCCNC(=N)N)NC(=O)[C@@H]1CCCN1C(=O)[C@H](CCCNC(=N)N)NC(=O)[C@@H]1CCC(=O)N1)C(=O)N1CCC[C@H]1C(=O)N[C@H](Cc1ccc(OCc2ccccc2)cc1)C(=O)O`, the Ki at Apelin receptor [1] (hek293) was determined as 0.02 nM. In addition, the values for the concentration giving a half-maximal response (EC50) at Apelin receptor [2] (hek293), on Apelin receptor [3] (hek293) and on Apelin receptor [4] (hek293) were 0.5 nM, 11 nM and 14 nM, respectively.

`CCCC[C@H](NC(=O)[C@@H]1CCCN1C(=O)CNC(=O)[C@H](CCCCN)NC(=O)[C@H](Cc1cnc[nH]1)NC(=O)[C@H](CO)NC(=O)[C@H](CC(C)C)NC(=O)[C@H](CCCNC(=N)N)NC(=O)[C@@H]1CCCN1C(=O)[C@H](CCCNC(=N)N)NC(=O)[C@@H]1CCC(=O)N1)C(=O)N1CCC[C@H]1C(=O)N[C@H](Cc1cc(C2CCCC2)c(O)c(C2CCCC2)c1)C(=O)O` displayed a Ki at Apelin receptor [1] of 1.6 nM. In addition, the concentration for a half-maximal effect (EC50) was determined as 16 nM at Apelin receptor [2], 111 nM on Apelin receptor [3] and 361 nM on Apelin receptor [4].

For `CCCC[C@H](NC(=O)[C@@H]1CCCN1C(=O)CNC(=O)[C@H](CCCCN)NC(=O)[C@H](Cc1cnc[nH]1)NC(=O)[C@H](CO)NC(=O)[C@H](CC(C)C)NC(=O)[C@H](CCCNC(=N)N)NC(=O)[C@@H]1CCCN1C(=O)[C@H](CCCNC(=N)N)NC(=O)[C@@H]1CCC(=O)N1)C(=O)N1CCC[C@H]1C(=O)N[C@H](C(=O)O)C(C)(C)c1ccccc1`, the affinity at Apelin receptor [1], expressed as Ki, was 0.36 nM. The EC50 stood at 2.4 nM on Apelin receptor [2], 67 nM at Apelin receptor [3] and 69 nM on Apelin receptor [4].

For the compound `CCCC[C@H](NC(=O)[C@@H]1CCCN1C(=O)CNC(=O)[C@H](CCCCN)NC(=O)[C@H](Cc1cnc[nH]1)NC(=O)[C@H](CO)NC(=O)[C@H](CC(C)C)NC(=O)[C@H](CCCNC(=N)N)NC(=O)[C@@H]1CCCN1C(=O)[C@H](CCCNC(=N)N)NC(=O)[C@@H]1CCC(=O)N1)C(=O)N1CCC[C@H]1C(=O)N[C@H](Cc1ccc(-c2ccccc2)cc1)C(=O)O`, affinity at Apelin receptor [1] (hek293) was put at a Ki of 0.35 nM. Also, the EC50 at Apelin receptor [2] (hek293) came out at 2.1 nM; at Apelin receptor [3] (hek293), 21 nM; on Apelin receptor [4] (hek293), 64 nM.

`CCCC[C@H](NC(=O)[C@@H]1CCCN1C(=O)CNC(=O)[C@H](CCCCN)NC(=O)[C@H](Cc1cnc[nH]1)NC(=O)[C@H](CO)NC(=O)[C@H](CC(C)C)NC(=O)[C@H](CCCNC(=N)N)NC(=O)[C@@H]1CCCN1C(=O)[C@H](CCCNC(=N)N)NC(=O)[C@@H]1CCC(=O)N1)C(=O)N1CCC[C@H]1C(=O)N1C[C@@H](OCc2ccccc2)C[C@@H]1C(=O)O`: the Ki at Apelin receptor [1] was 6.1 nM. The EC50 on Apelin receptor [2] came to 6.4 nM; at Apelin receptor [3], 63 nM; at Apelin receptor [4] it was 192 nM.

At Apelin receptor [1], `CCCC[C@H](NC(=O)[C@@H]1CCCN1C(=O)CNC(=O)[C@H](CCCCN)NC(=O)[C@H](Cc1cnc[nH]1)NC(=O)[C@H](CO)NC(=O)[C@H](CC(C)C)NC(=O)[C@H](CCCNC(=N)N)NC(=O)[C@@H]1CCCN1C(=O)[C@H](CCCNC(=N)N)NC(=O)[C@@H]1CCC(=O)N1)C(=O)N1Cc2ccccc2C[C@@H]1C(=O)N[C@@H](Cc1ccccc1)C(=O)O` yielded an inhibition constant Ki of 9.7 nM. Besides, the EC50 on Apelin receptor [2] was found to be 9.6 nM; on Apelin receptor [3], 67 nM; at Apelin receptor [4], 142 nM.

Turning to `CCCC[C@H](NC(=O)[C@@H]1CCCN1C(=O)CNC(=O)[C@H](CCCCN)NC(=O)[C@H](Cc1cnc[nH]1)NC(=O)[C@H](CO)NC(=O)[C@H](CC(C)C)NC(=O)[C@H](CCCNC(=N)N)NC(=O)[C@@H]1CCCN1C(=O)[C@H](CCCNC(=N)N)NC(=O)[C@@H]1CCC(=O)N1)C(=O)N1CCC[C@H]1C(=O)N[C@H]1Cc2c(ccc3ccccc23)CN(CC(=O)O)C1=O`, the Ki on Apelin receptor [1] amounted to 1.7 nM. For the same compound, the EC50 on Apelin receptor [2] worked out at 6.4 nM; on Apelin receptor [3], 74 nM; on Apelin receptor [4], 221 nM.

On Apelin receptor [1], `CCCC[C@H](NC(=O)[C@@H]1CCCN1C(=O)CNC(=O)[C@H](CCCCN)NC(=O)[C@H](Cc1cnc[nH]1)NC(=O)[C@H](CO)NC(=O)[C@H](CC(C)C)NC(=O)[C@H](CCCNC(=N)N)NC(=O)[C@@H]1CCCN1C(=O)[C@H](CCCNC(=N)N)NC(=O)[C@@H]1CCC(=O)N1)C(=O)N[C@H](Cc1ccc2ccccc2c1)C(=O)N1Cc2ccccc2C[C@@H]1C(=O)O` showed a Ki of 0.37 nM. In addition, the EC50 was determined as 4.3 nM on Apelin receptor [2] and 94 nM at Apelin receptor [4].

On to `CCCC[C@H](NC(=O)[C@@H]1CCCN1C(=O)CNC(=O)[C@H](CCCCN)NC(=O)[C@H](Cc1cnc[nH]1)NC(=O)[C@H](CO)NC(=O)[C@H](CC(C)C)NC(=O)[C@H](CCCNC(=N)N)NC(=O)[C@@H]1CCCN1C(=O)[C@H](CCCNC(=N)N)NC(=O)[C@@H]1CCC(=O)N1)C(=O)N1CCC[C@H]1C(=O)N[C@H](Cc1cccc(OCc2ccccc2)c1)C(=O)O`, for which the affinity on Apelin receptor [1] (hek293), expressed as Ki, was 0.46 nM. For the same compound, the EC50 came to 3.8 nM at Apelin receptor [2] (hek293), 45 nM on Apelin receptor [3] (hek293) and 106 nM at Apelin receptor [4] (hek293).

Turning to `CCCC[C@H](NC(=O)[C@@H]1CCCN1C(=O)CNC(=O)[C@H](CCCCN)NC(=O)[C@H](Cc1cnc[nH]1)NC(=O)[C@H](CO)NC(=O)[C@H](CC(C)C)NC(=O)[C@H](CCCNC(=N)N)NC(=O)[C@@H]1CCCN1C(=O)[C@H](CCCNC(=N)N)NC(=O)[C@@H]1CCC(=O)N1)C(=O)N1CCC[C@H]1C(=O)N[C@H]1Cc2c([nH]c3ccccc23)CN(CC(=O)O)C1=O`, the Ki on Apelin receptor [1] worked out at 4.3 nM. Moreover, the figures for the EC50 on Apelin receptor [2], at Apelin receptor [3] and at Apelin receptor [4] were 6.8 nM, 481 nM and 311 nM, respectively.

For the compound `CCCC[C@H](NC(=O)[C@@H]1CCCN1C(=O)CNC(=O)[C@H](CCCCN)NC(=O)[C@H](Cc1cnc[nH]1)NC(=O)[C@H](CO)NC(=O)[C@H](CC(C)C)NC(=O)[C@H](CCCNC(=N)N)NC(=O)[C@@H]1CCCN1C(=O)[C@H](CCCNC(=N)N)NC(=O)[C@@H]1CCC(=O)N1)C(=O)N1CCC[C@H]1C(=O)N[C@H](Cc1ccc(OCc2ccccc2)c(C2CCCC2)c1)C(=O)O`, the Ki at Apelin receptor [1] turned out to be 0.41 nM. Moreover, the concentration for a half-maximal effect (EC50) on Apelin receptor [2] was determined as 5.7 nM; on Apelin receptor [3] it was 53 nM; at Apelin receptor [4], 69 nM.

`CCCC[C@H](NC(=O)[C@@H]1CCCN1C(=O)CNC(=O)[C@H](CCCCN)NC(=O)[C@H](Cc1cnc[nH]1)NC(=O)[C@H](CO)NC(=O)[C@H](CC(C)C)NC(=O)[C@H](CCCNC(=N)N)NC(=O)[C@@H]1CCCN1C(=O)[C@H](CCCNC(=N)N)NC(=O)[C@@H]1CCC(=O)N1)C(=O)N1CCC[C@H]1C(=O)N[C@H](C(=O)O)C(C)c1ccccc1` (stereo partly drawn) came in with a Ki at Apelin receptor [1] of 0.37 nM. The figures for the EC50 at Apelin receptor [2], on Apelin receptor [3] and at Apelin receptor [4] were 1 nM, 108 nM and 40 nM, respectively.

Compound `CCCC[C@H](NC(=O)[C@@H]1CCCN1C(=O)CNC(=O)[C@H](CCCCN)NC(=O)[C@H](Cc1cnc[nH]1)NC(=O)[C@H](CO)NC(=O)[C@H](CC(C)C)NC(=O)[C@H](CCCNC(=N)N)NC(=O)[C@@H]1CCCN1C(=O)[C@H](CCCNC(=N)N)NC(=O)[C@@H]1CCC(=O)N1)C(=O)N1CCC[C@H]1C(=O)N1Cc2cc(OCc3ccccc3)ccc2C[C@@H]1C(=O)O` showed a Ki at Apelin receptor [1] of 0.19 nM. The EC50 came to 3.4 nM on Apelin receptor [2], 22 nM at Apelin receptor [3] and 45 nM on Apelin receptor [4].

Take `CCCC[C@H](NC(=O)[C@@H]1CCCN1C(=O)CNC(=O)[C@H](CCCCN)NC(=O)[C@H](Cc1cnc[nH]1)NC(=O)[C@H](CO)NC(=O)[C@H](CC(C)C)NC(=O)[C@H](CCCNC(=N)N)NC(=O)[C@@H]1CCCN1C(=O)[C@H](CCCNC(=N)N)NC(=O)[C@@H]1CCC(=O)N1)C(=O)N1CCC[C@H]1C(=O)N[C@@](C)(Cc1ccc(OCc2ccccc2)cc1)C(=O)O`: the affinity at Apelin receptor [1], expressed as Ki, was 1 nM. The EC50 at Apelin receptor [2] was determined as 19 nM; at Apelin receptor [3] it was 11 nM; at Apelin receptor [4], 571 nM.

Turning to `CCCC[C@H](NC(=O)[C@@H]1CCCN1C(=O)CNC(=O)[C@H](CCCCN)NC(=O)[C@H](Cc1cnc[nH]1)NC(=O)[C@H](CO)NC(=O)[C@H](CC(C)C)NC(=O)[C@H](CCCNC(=N)N)NC(=O)[C@@H]1CCCN1C(=O)[C@H](CCCNC(=N)N)NC(=O)[C@@H]1CCC(=O)N1)C(=O)N1CCC[C@H]1C(=O)N[C@H](Cc1cccc(-c2ccccc2)c1)C(=O)O`, the Ki on Apelin receptor [1] (hek293) is 0.31 nM. For the same compound, the EC50 turned out to be 1.4 nM at Apelin receptor [2] (hek293), 24 nM at Apelin receptor [3] (hek293) and 47 nM at Apelin receptor [4] (hek293).

`CCCC[C@H](NC(=O)[C@@H]1CCCN1C(=O)CNC(=O)[C@H](CCCCN)NC(=O)[C@H](Cc1cnc[nH]1)NC(=O)[C@H](CO)NC(=O)[C@H](CC(C)C)NC(=O)[C@H](CCCNC(=N)N)NC(=O)[C@@H]1CCCN1C(=O)[C@H](CCCNC(=N)N)NC(=O)[C@@H]1CCC(=O)N1)C(=O)N1CC[C@H](c2ccccc2)[C@@H]1C(=O)N[C@@H](Cc1ccccc1)C(=O)O` registered a Ki at Apelin receptor [1] of 4.2 nM. For the same compound, the EC50 at Apelin receptor [2] turned out to be 17 nM; on Apelin receptor [3] it was 48 nM; on Apelin receptor [4], 454 nM.
